Source: patent US6737057B1, “Compounds, compositions and methods for the endocytic presentation of immunosuppressive factors” (The University of Tennessee Research Corporation, priority 1997, dated 2004)
Where “and” joins values, the source holds several entries; their conditions need not be identical. Identical values can stand only once. Entries after “also recorded” stand apart in the source; their conditions may differ.

T1: I-A^S class II molecules (Mus musculus, UniProt P06345+P14437)
T1 sequence (P14437 1-233): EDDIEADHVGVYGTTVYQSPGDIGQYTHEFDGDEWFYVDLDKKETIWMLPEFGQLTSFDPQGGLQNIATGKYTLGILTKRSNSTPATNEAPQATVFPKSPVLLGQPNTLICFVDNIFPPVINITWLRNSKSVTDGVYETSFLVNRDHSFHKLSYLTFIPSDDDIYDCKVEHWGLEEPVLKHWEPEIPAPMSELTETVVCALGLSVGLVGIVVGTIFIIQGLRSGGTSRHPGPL
T1 sequence (P06345 28-263): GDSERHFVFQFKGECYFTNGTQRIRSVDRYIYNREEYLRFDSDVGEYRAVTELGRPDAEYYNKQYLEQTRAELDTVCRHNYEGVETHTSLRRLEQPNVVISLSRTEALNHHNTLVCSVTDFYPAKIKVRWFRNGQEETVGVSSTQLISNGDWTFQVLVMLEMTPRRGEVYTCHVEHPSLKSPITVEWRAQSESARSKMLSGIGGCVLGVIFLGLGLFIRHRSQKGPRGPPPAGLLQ

B1: proteolipid protein (protein, UniProt P60203 2-277, looked up)
Myelin proteolipid protein: GLLECCARCLVGAPFASLVATGLCFFGVALFCGCGHEALTGTEKLIETYFSKNYQDYEYLINVIHAFQYVIYGTASFFFLYGALLLAEGFYTTGAVRQIFGDYKTTICGKGLSATVTGGQKGRGSRGQHQAHSLERVCHCLGKWLGHPDKFVGITYALTVVWLLVFACSAVPVYIYFNTWTTCQSIAFPSKTSASIGSLCADARMYGVLPWNAFPGKVCGSNLLSICKTAEFQMTFHLFIAAFVGAAATLVSLLTFMIAATYNFAVLKLMGRGTKF
notes: native proteolipid protein purified from rat brain

Assays:
I-A^S class II molecules = target: T1, I-A^S class II molecules; settings: cited from earlier work
[1] = tested on: PLP1-specific T cell hybridoma 5B6; assay: T cell hybridoma activation assay (IL-2 production), 5B6; type: cell-based, mouse; settings: SJL splenocyte APCs; 0.1 μM Ig chimeras, 1 μM peptides, 1.7 μM PLP; FIG. 3B
Protocol: (§1) PLP1-specific T cell hybridomas 5B6 and 4E3 and the IL-2 dependent HT-2 T helper cells were obtained from The Eunice Kennedy Shriver Center, Waltham, Mass. The 5B6 and 4E3 T cells recognize the peptide PLP1 in association with 1-A^S class II MHC and produces IL-2 when incubated with it as reported by Kuchroo et al., J. Immunol. 153:3326-3336, 1994 which is incorporated herein by reference. Conversely, Kuchroo et al. report that when stimulated with PLP1 and then with PLP-LR both 5B6 and 4E3 cells no longer produce IL-2.
(§2) Using substantially the same technique as Kuchroo et al., activation of the T cell hybridomas for various agonists was performed as follows. Irradiated (3,000 rads) splenocytes from SJL mice were used as antigen presenting cells (APCs) for this Example. The irradiated splenocytes were incubated in 96-well round bottom plates (5×10^5 cells/well/50 μl) with graded concentrations of antigens (100 μl/well). After one hour, T cell hybridomas, i.e. 5B6 of 4E3 (5×10^4 cells/well/50 μl) were added and the culture was continued overnight. Activation (or proliferation) of the T cells was assessed by measuring production of IL-2 in the culture supernatant. This was done by ^3H-thymidine incorporation using the IL-2 dependent HT-2 cells. That is, when IL-2 is present (i.e. secreted by activated T cells) the HT-2 cells proliferate, incorporating labeled thymidine from the surrounding media.
(§3) The culture media used to carry out these assays was DMEM supplemented with 10% FBS, 0.05 mM 2-mercaptoethenol, 2 mM glutamine, 1 mM sodium puryvate and 50 μg/mL gentamycin sulfate. Briefly, culture supernatants (100 μl/well) were incubated with HT-2 cells (1×10^4 cells/well/100 μl) in 96-well flat bottom plates for 24 hours. Subsequently 1 μCi ^3H-thymidine was added per well and the culture was continued for an additional 12-14 hours. The cells were then harvested on glass fiber filters and the non incorporated ^3H-thymidine was washed away. Incorporated thymidine was then counted using the trace 96 program and an Inotech β counter. It will be appreciated that those wells containing higher levels of IL-2 (secreted by the activated T cell hybridoma lines) will induce higher levels of HT-2 cell proliferation and register increased levels of ^3H-thymidine incorporation.

SJL mice = settings: cited from earlier work
[2] = tested on: PLP1-specific T cell hybridoma 4E3; assay: T cell hybridoma activation assay (IL-2 production), 4E3; type: cell-based, mouse; settings: for EC50: 4E3 hybridoma, irradiated SJL/J splenocytes, IL-2 by HT-2 3H-thymidine incorporation, FIG. 4, read-out: stimulation to half the maximum level; for IL-2 production by T cell hybridoma 4E3: SJL splenocyte APCs, 0.1 μM Ig chimeras, 1 μM peptides, 1.7 μM PLP, FIG. 3A
Protocol: as §1, §2, §3
Specifically, different concentrations of the three antigens (i.e. agonists) were incubated with irradiated SJL/J splenocytes which were subsequently associated with 4E3 T cell hybridomas. IL-2 production was measured by ^3H-thymidine incorporation using the IL-2 dependent HT-2 cells as described in Example VI. Each point represents the mean of triplicates.

4E3 T cell hybridomas = assay: Prepulsed proliferation assay: antagonism of agonist mediated T cell activation; type: cell-based, mouse; design: key to T cell antagonism, Stimulator (Agonist) PLP1 / T cell antagonism, Stimulator (Agonist) PLP / T cell antagonism, Stimulator (Agonist) Ig-PLP1: +: a plus sign indicates inhibition of IL-2 production and therefore antagonism; −: a minus sign indicates little or no inhibition of IL-2 production and therefore little or no antagonism; settings: for control thymidine incorporation (agonist, no antagonist): 1 μM PLP1 peptide, 0.05 μM Ig-PLP1 or 7 μM PLP, background not deducted; for antagonism of Ig-PLP1 mediated T cell activation (IL-2 production): agonist 0.05 μM Ig-PLP1, FIG. 5B
Protocol: Irradiated (3,000 rads) SJL splenocytes (used as APCs) were incubated in 96-well round bottom plates (5×10^5 cells/well/50 μl) with the selected agonist (1 μM PLP1 peptide, 0.05 μM Ig-PLP1 or 7 μM PLP) and various concentrations of antagonist (100 μl/well) for 1 hour. Subsequently, 4E3 T cell hybridomas (5×10^4 cells/well/50 μl) were added and the culture was continued overnight. IL-2 production in the supernatant, determined as in Example VI using HT-2 cells, was used as measure of T cell activation.
Cpm values obtained when the APCs were incubated with the agonist but no antagonist was used as control thymidine incorporation. This value was 7,503±1,302 for Ig-PLP1; 31,089±3,860 for PLP1 peptide; and 8,268±915 for PLP. The cpm value obtained when the APCs were incubated with no agonist or antagonist was used as background (BG). This value was 1,560±323 for Ig-PLP1; 2,574±290 for PLP1 peptide; and 2,127±177 for PLP. The percent control thymidine incorporation was calculated as follows: [(cpm obtained in the presence of test antagonist)−(BG)]/[(cpm control thymidine incorporation value)−(BG)]. Each point represents the mean of triplicates.

PLP-LR specific T cells = assay: In vivo T cell response to PLP-LR after co-administration with Ig-PLP1; design: species or system SJL mice; settings: co-administered with Ig-PLP1; lymph node and spleen cells, PLP-LR 15 μg/mL; FIG. 9
Protocol: Lymph node and spleen cells were obtained in the same manner as set forth in Example X following co-administration of Ig-PLP1 and Ig-PLP-LR. Proliferative responses in individual mice were also measured using the methods set out in the previous Example following in vitro stimulation with either free PLP1 peptide or PLP-LR peptide at 15 μg/mL. The results of the assays using lymph node and spleen cells are detailed in FIGS. 9A and 9B respectively.

PLP1 specific T cells = assay: In vivo inhibition of T cell response to PLP1 on co-administration with Ig-PLP1; design: species or system SJL mice
Protocol: Mice were co-immunized with mixtures of either 50 μg Ig-PLP1 and 150 μg Ig-PLP-LR or 50 μg Ig-PLP1 combined with 150 μg Ig-W. In particular, individual mice from three groups (4 mice per group) were injected sc, as in Example X with a 200 μl mixture (PBS/CFA, 1:1 v/v) containing one of the following mixtures: 50 μg Ig-PLP1 and 150 μg Ig-PLP-LR; 50 μg Ig-PLP1 and 150 μg Ig-W; or Ig-PLP1 and 100 μg PLP-LR peptide. Splenic and lymph node T cell responses were analyzed at day 10 post immunization using the protocol set forth in Example X. The lymph node cells were assayed at 4×10^5 cells/well and the spleen cells at 10×10^5 cells/well. The agonist ligand was PLP1 at 15 μg/mL. Results for the lymph node and spleen cells, shown in FIGS. 8A and 8B respectively and summarized in Table 2 below, represent the mean±SD of triplicates after deduction of background cpm obtained with no agonist in the media.
(mean cpm of triplicates obtained with PLP1 stimulation−mean cpm triplicate BG)/(mean cpm of triplicates obtained with PPD−mean cpm triplicate BG)×100

T cell hybridomas = settings: reported by Kuchroo et al.; cited from earlier work

Row | Molecule | binding to I-A^S class II molecules (I-A^S class II molecules) | IL-2 production by T cell hybridoma 5B6 [1] | encephalitogenic activity / EAE induction (SJL mice) | EC50 [2] [nM] | IL-2 production by T cell hybridoma 4E3 [2] | control thymidine incorporation (agonist, no antagonist) (4E3 T cell hybridomas) | T cell response to PLP-LR (PLP-LR specific T cells) | PLP1/PPD (%) (PLP1 specific T cells; co-administered sc with 50 μg Ig-PLP1 (150 μg Ig or 100 μg peptide), day 10, individual mice 1-4, PLP1 specific relative to PPD specific proliferation, listed as PLP-LR peptide) | reduction of immune response to PLP1 peptide (PLP1 specific T cells; co-administered with Ig-PLP1, lymph node and spleen cells, FIG. 8) | effect on IL-2 production of T cell hybridomas stimulated with PLP1 (T cell hybridomas) | antagonism of Ig-PLP1 mediated T cell activation (IL-2 production) (4E3 T cell hybridomas) | IC50 (4E3 T cell hybridomas; agonist 1 μM PLP1 peptide, FIG. 5A, read-out: Inhibition of IL-2 production to half the maximum level (60% control thymidine incorporation)) [nM] | antagonism of native PLP mediated T cell activation (IL-2 production) (4E3 T cell hybridomas; agonist 7 μM PLP, FIG. 5C) | T cell antagonism, Stimulator (Agonist) Ig-PLP1 (4E3 T cell hybridomas; agonist Ig-PLP1, summary of FIG. 5) | T cell antagonism, Stimulator (Agonist) PLP1 (4E3 T cell hybridomas; agonist PLP1, summary of FIG. 5) | T cell antagonism, Stimulator (Agonist) PLP (4E3 T cell hybridomas; agonist PLP, summary of FIG. 5) | antagonism of PLP1 peptide mediated T cell activation (IL-2 production) (4E3 T cell hybridomas; agonist 1 μM PLP1 peptide, FIG. 5A)
1 | HSLGKWLGHPNKF [PLP1, a peptide fragment of PLP comprising aa residues 139-151] | bind well | substantial levels of IL-2 | encephalitogenic | 600 | substantial levels of IL-2 | 31,089±3,860 cpm |  |  |  |  |  |  |  |  |  |  | 
2 | HSLGKLLGRPNKF [PLP-LR, analog of PLP1 in which Trp144 and His147 were replaced with Leu and Arg] | bind well | did not stimulate 5B6 and 4E3 to produce significant levels of IL-2 |  |  | did not stimulate 5B6 and 4E3 to produce significant levels of IL-2 |  | induction of PLP-LR-specific response | 93% and 100% and 81% and 91% | no indication that the PLP1 response was reduced; also recorded: no evident reduction in the proliferative response to PLP1 | inhibits IL-2 production | did not show any significant antagonism; also recorded: failed to inhibit T cell activation | 9000 | failed to inhibit T cell activation | − | + | − | 
3 | NTWTTCQSIAFPSK [PLP2, a peptide fragment of PLP comprising aa residues 178-191] | binds | did not induce the production of IL-2 | induces EAE |  | did not induce the production of IL-2 |  |  |  |  |  | did not show any significant antagonism |  |  |  |  |  | antagonist effects were not observed
4 | B1 |  | substantial levels of IL-2 |  | 500 | substantial levels of IL-2 | 8,268±915 cpm |  |  |  |  |  |  |  |  |  |  | 
